From patent publication US20240358848A1, “ANTITUMOR COMPOUND AND USE THEREOF” (priority 2021, published 2024)
Read-outs that look alike come from different tables or passages of the source.

System: KPL-4 Cells
Experiment: Cell proliferation inhibition assay (CellTiter-Glo, 72 h)
Assay type: cell-based
Method: KPL-4 Cells in the logarithmic phase of growth were collected and re-suspended with fresh RPMI1640 complete cell culture medium, and adjusted to 2×10^4 cells/mL after cell counting. Cells were seeded into 96-well cell culture plates at 100 μL/well, and placed in a CO2 incubator (37° C., 5% CO2) overnight. In the next day, one of the cell culture plates were taken out, balanced to room temperature, and CellTiter-Glo reagent (Promega, USA), which was pre-balanced to room temperature and evenly mixed, was added into the plate at 100 μl/well. The plate was kept in dark for 30 min, and then luminescence value was read with a microplate reader (denoted as G0 value). The other cell culture plates were taken out and added with different concentrations of test compounds or DMSO (final concentration 0.5%) in corresponding wells. After incubated for 72 h in a CO2 incubator, the cell culture plates were balanced to room temperature and tested for cell viabilities using CellTiter-Glo reagent as described above (denoted as G3 value).
The cell proliferation rates were calculated using the following formula: Cell proliferation rate (%)=(mean of G3compound−mean of G0)/(mean of G3DMSO−mean of G0)×100.

[1] = KPL4, KPL-4, 72 h, read-out: GI50

| Compound | GI50 [1] [nM] | GI50 (KPL4, 72 h) [nM] |
| --- | --- | --- |
| CC[C@@]1(O)C(=O)OCc2c1cc1n(c2=S)Cc2c-1nc1cc(F)c(C)c3c1c2[C@@H](NC(=O)CO)CC3 [X] | 13.9 |  |
| CC[C@@]1(O)C(=O)OCc2c1cc1n(c2=S)Cc2c-1nc1cc(F)c(C)c3c1c2[C@H](NC(=O)CO)CC3 [Y] | 10.3 |  |
| CC[C@@]1(O)C(=O)OCc2c1cc1n(c2=O)Cc2c-1nc1cc(F)c(C)c3c1c2[C@@H](NC(=O)CO)CC3 [DXd, reference compound] |  | 72 |
